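Compound exposure: 48 hours, 5 concentrations, 96-well plates. GI50: concentration for 50% inhibition of growth. TGI: total growth inhibition.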 Some results are limits rather than exact numbers.

Drawing on PubChem BioAssay (NCI), this text covers GI50 and TGI for three compounds.

Among the test systems are MDA-MB-231 breast; NCI-H522 lung; RXF 393 renal; BT-549 breast; ACHN renal; A549 NSCLC; HL-60(TB) leukemia; KM12 colon; SR leukemia; SF-295 CNS.
What all share (assay): NCI tumour cell line growth inhibition, 48 h

As to `Cc1cc(S(=O)(=O)Nc2n[nH]c(-c3ccc(Cl)cc3)c2C#N)c(S)cc1Cl`, the GI50 in the test with MDA-MB-231 breast, in the test on NCI-H522 lung, with RXF 393 renal, in the test on BT-549 breast, with ACHN renal and in the test on A549 NSCLC was greater than 100 µM each time. Besides, the GI50 in the test on HL-60(TB) leukemia, in the test on KM12 colon, in the test on SR leukemia and with SF-295 CNS was greater than 100 µM throughout. Further, the TGI with MDA-MB-231 breast, in the test on NCI-H522 lung, in the test on RXF 393 renal, in the test on BT-549 breast, with ACHN renal and in the test with A549 NSCLC was greater than 100 µM throughout. The TGI with HL-60(TB) leukemia, in the test on KM12 colon, in the test on SR leukemia and in the test on SF-295 CNS was greater than 100 µM each time.
Consider `CCN1C2=C(SC(=S)C1=C1SC(C(=O)c3ccccc3)=C(C(=O)c3ccccc3)S1)SC(=Nc1ccccc1)C2=O`, for which the GI50 is 13.6 µM with MDA-MB-231 breast; 5.43 µM in the test with NCI-H522 lung; 9.09 µM with RXF 393 renal; 5.2 µM in the test on BT-549 breast; 37.3 µM in the test on ACHN renal; greater than 100 µM in the test on A549 NSCLC. The GI50 is greater than 100 µM in the test with HL-60(TB) leukemia, 51 µM in the test with KM12 colon, 3.19 µM in the test with SR leukemia and 11.3 µM in the test with SF-295 CNS. For the same compound, the TGI was greater than 100 µM in the test with MDA-MB-231 breast; greater than 20.8 µM with NCI-H522 lung; greater than 45.3 µM with RXF 393 renal; 42.7 µM with BT-549 breast; greater than 100 µM in the test on ACHN renal; greater than 100 µM with A549 NSCLC. Also, the TGI is greater than 100 µM in the test with HL-60(TB) leukemia, greater than 100 µM in the test on KM12 colon, greater than 100 µM in the test with SR leukemia and greater than 90.7 µM in the test on SF-295 CNS.
On to `N#C/C(=C\c1ccc([N+](=O)[O-])cc1)n1nnc2cc(F)c(F)cc21`, for which the GI50 in the test with MDA-MB-231 breast was 1.97 µM; in the test with NCI-H522 lung, 1.66 µM; in the test on RXF 393 renal, 1.04 µM; in the test on BT-549 breast it was 1.77 µM; with ACHN renal, 1.74 µM; in the test with A549 NSCLC, 2.62 µM. Also, the GI50 with HL-60(TB) leukemia is 2.36 µM; in the test on KM12 colon it was 2.02 µM; in the test with SR leukemia, 1.08 µM; with SF-295 CNS, 2.08 µM. The TGI was determined as 4.84 µM in the test with MDA-MB-231 breast; 3.79 µM with NCI-H522 lung; 2.39 µM in the test with RXF 393 renal; 4.17 µM with BT-549 breast; 3.11 µM with ACHN renal; 9.04 µM in the test on A549 NSCLC. The TGI is 5.78 µM in the test on HL-60(TB) leukemia, 4.39 µM in the test with KM12 colon, greater than 100 µM in the test with SR leukemia and 5.29 µM in the test with SF-295 CNS.
